Data from patent US10294202B2, “Pyrrolidinones as herbicides” (FMC Corporation, priority 2013, dated 2019).
Read-outs that look alike come from different tables or passages of the source.

Assays:
kochia = assay: Test A pre-/postemergence herbicide test; type: in vivo, Kochia scoparia; settings: for Plant response rating, Kochia: 0 to 100 scale
Method in brief: (§1)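 Both application timings used compounds in a non-phytotoxic solvent plus surfactant. Pre-emergence: soil sprayed directly after seeding into loam/sand. Post-emergence: foliage of 2–10 cm seedlings (1–2 leaves) sprayed. Injury rated ~10 days later, 0–100.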

rice = assay: Test C flooded paddy test; type: in vivo, Oryza sativa; settings: Flood
Method in brief: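 Visual injury scored against controls after 13 to 15 days in the greenhouse, using 0 (no effect) to 100 (complete control). Test compounds went straight into paddy water held 3 cm above the soil surface on 2-leaf-stage plants, with that flood depth maintained for the whole test.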

oat, wild = assay: Test D pre-/postemergence herbicide test; type: in vivo, Avena fatua; settings: for Plant response rating, Oat, Wild: Preemergence, scale 0 to 100 (0 no effect, 100 complete control); for Plant response rating: Postemergence, Oat, Wild, scale 0 to 100
Method in brief: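 Visual 0–100 ratings (0 = no effect, 100 = complete control) versus controls, made 7 to 21 days after treatment in a controlled growth environment. Test chemicals in surfactant-containing non-phytotoxic solvent were applied preemergence to silt loam-sown seeds and postemergence to plants 2–18 cm tall.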

radish, wild = assay: Test D pre-/postemergence herbicide test; type: in vivo, Raphanus raphanistrum; settings: for Plant response rating, Radish, Wild: Preemergence, scale 0 to 100 (0 no effect, 100 complete control); for Plant response rating: Postemergence, Radish, Wild, scale 0 to 100
From the text: Seeds of plant species selected from bluegrass (annual bluegrass, Poa annua), blackgrass (Alopecurus myosuroides), canarygrass (littleseed canarygrass, Phalaris minor), chickweed (common chickweed, Stellaria media), galium (catchweed bedstraw, Galium aparine), bromegrass, downy (downy bromegrass, Bromus tectorum), field poppy (Papaver rhoeas), field violet (Viola arvensis), foxtail, green (green foxtail, Setaria viridis), deadnettle (henbit deadnettle, Lamium amplexicaule), ryegrass, Italian (Italian ryegrass, Lolium multiflorum), kochia (Kochia scoparia), lambsquarters (Chenopodium album), oilseed rape (Brassica napus), pigweed (Amaranthus retroflexus), chamomile (scentless chamomile, Matricaria inodora), Russian thistle (Salsola kali), speedwell (bird's-eye speedwell, Veronica persica), barley, spring (spring barley, Hordeum vulgare), wheat, spring (spring wheat, Triticum aestivum), buckwheat, wild (wild buckwheat, Polygonum convolvulus), mustard, wild (wild mustard, Sinapis arvensis), oat, wild (wild oat, Avena fatua), radish, wild (wild radish, Raphanus raphanistrum), […]), barley, winter (winter barley, Hordeum vulgare), and wheat, winter (winter wheat, Triticum aestivum) were planted into a silt loam soil and treated preemergence with test chemicals formulated in a non-phytotoxic solvent mixture which included a surfactant. At the same time, these species were planted in pots containing Redi-Earth® planting medium (Scotts Company, 14111 Scottslawn Road, Marysville, Ohio 43041) comprising spaghnum peat moss, vermiculite, wetting agent and starter nutrients and treated with postemergence applications of the test chemicals formulated in the same manner. Plants ranged in height from 2 to 18 cm (1- to 4-leaf stage). Treated plants and controls were maintained in a controlled growth environment for 7 to 21 days after which time all species were compared to controls and visually evaluated. Plant response ratings, summarized in Table D, are based on a scale of 0 to 100 where 0 is no effect and 100 is complete control. A dash (-) response means no test result.

foxtail, giant = assay: Test E preemergence herbicide test; type: in vivo, Setaria faberii; parameters: key: 0 = no effect, 100 = complete control
Method in brief: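 Test chemicals, formulated in a surfactant-containing non-phytotoxic solvent blend, are applied preemergence to seeded silt loam soil. After 21 days in the greenhouse, response is scored visually relative to controls, where 100 means complete control and 0 means no effect.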

crabgrass, large = assay: Test A pre-/postemergence herbicide test; type: in vivo, Digitaria sanguinalis; settings: for pest or weed control at 500 g/ha: 500 g ai/ha; for pest or weed control at 1000 g/ha: 1000 g ai/ha
Method in brief: as §1

[1] = 125 g ai/ha, visual rating, 0 no effect, 100 complete control, approximately 10 days, preemergence
[2] = Postemergence, 125 g ai/ha, 0 is no effect, 100 is complete control
[3] = preemergence, 500 g ai/ha, 0 is no effect and 100 is complete control
[4] = 125 g ai/ha, scale of 0 to 100 where 0 is no effect and 100 is complete control, 13 to 15 days
[5] = 250 g ai/ha, scale of 0 to 100 where 0 is no effect and 100 is complete control, 13 to 15 days
[6] = 31 g ai/ha, scale of 0 to 100 where 0 is no effect and 100 is complete control, 13 to 15 days
[7] = 62 g ai/ha, scale of 0 to 100 where 0 is no effect and 100 is complete control, 13 to 15 days
[8] = Digitaria sanguinalis, post-emergence, 240 h, Postemergence, 0 to 100 scale (0 no effect, 100 complete control), read-out: Plant response rating, Crabgrass, Large

| Structure (SMILES) | Plant response rating, Kochia (kochia; [1]) | Plant response rating, Kochia (kochia; [2]) | Kochia plant response rating (0 to 100 scale, 0 is no effect, 100 is complete control) (kochia; Postemergence, 500 g ai/ha) | Plant response rating, Kochia (kochia; [3]) | Plant response rating, Rice (rice; [4]) | Plant response rating, Oat, Wild (oat, wild; 62 g ai/ha) | Plant response rating, Oat, Wild (oat, wild; 125 g ai/ha) | Plant response rating, Oat, Wild (oat, wild; 31 g ai/ha) | Plant response rating, Oat, Wild (oat, wild; 250 g ai/ha) | Plant response rating, Radish, Wild (radish, wild; 62 g ai/ha) | Plant response rating, Radish, Wild (radish, wild; 125 g ai/ha) | Plant response rating, Radish, Wild (radish, wild; 31 g ai/ha) | Plant response rating, Radish, Wild (radish, wild; 250 g ai/ha) | Plant response rating, Foxtail, Giant (foxtail, giant; 31 g ai/ha) | Plant response rating, Foxtail, Giant (foxtail, giant; 62 g ai/ha) | Plant response rating, Foxtail, Giant (foxtail, giant; 125 g ai/ha) | Plant response rating, Foxtail, Giant (foxtail, giant; 250 g ai/ha) | Plant response rating (oat, wild; 31 g ai/ha) | Plant response rating (oat, wild; 62 g ai/ha) | Plant response rating (oat, wild; 125 g ai/ha) | other results |
| --- | --- | --- | --- | --- | --- | --- | --- | --- | --- | --- | --- | --- | --- | --- | --- | --- | --- | --- | --- | --- | --- |
| O=C1NC[C@H](c2cccc(C(F)(F)F)c2)[C@H]1C(=O)Nc1cccc(F)c1F [Compound 206] | 70 | 70 | 70 | 80 | 0 | 35 | 40 | 25 | 55 | 25 | 30 | 25 | 30 | 90 | 98 | 98 | 98 |  |  |  | Plant response rating, Rice (rice; [5]): 0; Plant response rating, Rice (rice; 500 g ai/ha, scale 0 to 100): 15; Plant response rating, Rice (rice; 1000 g ai/ha, scale 0 to 100): 15 |
| O=C1NC[C@H](c2cccc(C(F)(F)F)c2)[C@H]1C(=O)Nc1ccccc1F [Compound 204, (3R,4S)—N-(2-fluorophenyl)-2-oxo-4-[3-(trifluoromethyl)phenyl]-3-pyrrolidinecarboxamide] | 0 | 20 | 60 | 80 | 0 | 25 | 60 | 0 | 40 | 0 | 0 | 0 | 0 | 50 | 95 | 95 | 98 |  |  |  | Plant response rating, Rice (rice; [5]): 0; Plant response rating, Rice (rice; 500 g ai/ha, scale 0 to 100): 0; Plant response rating, Rice (rice; 1000 g ai/ha, scale 0 to 100): 10 |
| O=C1NCC(c2ccc(C(F)(F)F)cc2)C1C(=O)Nc1cccc(F)c1F (stereo not drawn) [Compound 80, N-(2,3-difluorophenyl)-2-oxo-4-[4-(trifluoromethyl)phenyl]-3-pyrrolidinecarboxamide] |  |  |  |  | 0 | 5 | 10 | 0 | 20 | 30 | 30 | 15 | 70 | 65 | 75 | 80 | 90 | 10 | 10 | 5 | Plant response rating, Rice (rice; [6]): 0; Plant response rating, Rice (rice; [7]): 0; Plant response rating, Rice (rice; 250 g ai/ha, scale 0 to 100): 0; pest or weed control at 125 g/ha (crabgrass, large; Digitaria sanguinalis, post-emergence, 240 h, Postemergence, 125 g ai/ha, 0 to 100 scale, 0 no effect, 100 complete control, read-out: Plant response rating, Crabgrass, Large): 80%; pest or weed control at 500 g/ha (crabgrass, large; [8]): 90%; pest or weed control at 500 g/ha (crabgrass, large; Digitaria sanguinalis, pre-emergence, 240 h, preemergence, 0 to 100 scale, read-out: Plant response rating, Crabgrass, Large): 90%; Crabgrass, Large plant response rating (crabgrass, large; Preemergence, 125 g ai/ha, visual rating on 0 to 100 scale (0 no effect, 100 complete control)): 90; Plant response rating (oat, wild; 250 g ai/ha): 10; Plant response rating (radish, wild; 31 g ai/ha): 50; Plant response rating (radish, wild; 62 g ai/ha): 70; Plant response rating (radish, wild; 125 g ai/ha): 35; Plant response rating (radish, wild; 250 g ai/ha): 60; Plant response rating, Foxtail, Giant (foxtail, giant; 16 g ai/ha): 0 |
| O=C1NCC(c2ccc(F)c(F)c2)C1C(=O)Nc1cccc(F)c1F (stereo not drawn) [Compound 17, N-(2,3-difluorophenyl)-4-(3,4-difluorophenyl)-2-oxo-3-pyrrolidinecarboxamide] |  |  |  |  | 0 |  |  |  |  |  |  |  |  | 35 | 35 | 95 | 98 | 0 | 0 | 0 | Plant response rating, Rice (rice; [6]): 0; Plant response rating, Rice (rice; [7]): 0; Plant response rating, Rice (rice; 250 g ai/ha, scale 0 to 100): 0; pest or weed control at 1000 g/ha (crabgrass, large; [8]): 90%; pest or weed control at 1000 g/ha (crabgrass, large; Digitaria sanguinalis, pre-emergence, 240 h, Preemergence, visual rating on 0 to 100 scale (0 no effect, 100 complete control), approx. 10 days, read-out: Plant response rating, Crabgrass, Large): 90%; Plant response rating (oat, wild; 16 g ai/ha): 0; Plant response rating (oat, wild; 250 g ai/ha): 0; Plant response rating (radish, wild; 16 g ai/ha): 0; Plant response rating (radish, wild; 31 g ai/ha): 0; Plant response rating (radish, wild; 62 g ai/ha): 0; Plant response rating (radish, wild; 125 g ai/ha): 15; Plant response rating (radish, wild; 250 g ai/ha): 15; Plant response rating, Foxtail, Giant (foxtail, giant; 16 g ai/ha): 0 |
| O=C1NCC(c2ccc(C(F)(F)F)cc2)C1C(=O)Nc1cccc(F)c1F (racemic) [Compound 202] | 70 | 80 | 90 | 80 |  | 20 | 35 | 5 | 40 | 0 | 0 | 0 | 80 | 35 | 50 | 95 | 98 | 5 | 10 | 10 | Plant response rating (oat, wild; 250 g ai/ha): 15; Plant response rating (radish, wild; 31 g ai/ha): 50; Plant response rating (radish, wild; 62 g ai/ha): 70; Plant response rating (radish, wild; 125 g ai/ha): 75; Plant response rating (radish, wild; 250 g ai/ha): 70 |
